Experimental data taken from patent publication US6737383B1, “Herbicidal oxadiazolidines” (priority 1999, dated 2004).

Columns and labels:
giant foxtail = experiment: Test B pre/postemergence giant foxtail; format: in vivo, Setaria faberii
Procedure, shortened: (§1)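 Response is a visual 0-to-10 score relative to untreated plants, where 0 means no effect and 10 means complete control, taken twelve to sixteen days after application. Treatments went onto soil at planting and onto foliage of 1- to 4-leaf plants, using a surfactant-containing non-phytotoxic solvent.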

rape = experiment: Test B pre/postemergence rape; format: in vivo, Brassica napus
Procedure, shortened: as §1

crabgrass = experiment: Test B pre/postemergence crabgrass; format: in vivo, Digitaria sanguinalis
Procedure, shortened: as §1

velvetleaf = experiment: Test B pre/postemergence velvetleaf; format: in vivo, Abutilon theophrasti
Procedure, shortened: as §1

soybean = experiment: Test B pre/postemergence soybean; format: in vivo, Glycine max
Procedure, shortened: as §1

pigweed = experiment: Test B pre/postemergence pigweed; format: in vivo, Amaranthus retroflexus
Procedure, shortened: as §1

bedstraw = experiment: Test B pre/postemergence bedstraw; format: in vivo, Galium aparine; settings: for Bedstraw plant response rating: Postemergence; for Plant response rating, Bedstraw: Preemergence
Procedure, shortened: as §1

blackgrass = experiment: Test B pre/postemergence blackgrass; format: in vivo, Alopecurus myosuroides
Procedure, shortened: as §1

purple nutsedge = experiment: Test B pre/postemergence purple nutsedge; format: in vivo, Cyperus rotundus
Procedure, shortened: as §1

surinam grass = experiment: Test B pre/postemergence surinam grass; format: in vivo, Brachiaria decumbens
Procedure, shortened: as §1

corn = experiment: Test B pre/postemergence corn; format: in vivo, Zea mays; settings: for Corn plant response rating: Postemergence; for Plant response rating, Corn: Preemergence
Procedure, shortened: as §1

wild oat = experiment: Test B pre/postemergence wild oat; format: in vivo, Avena fatua
Procedure, shortened: as §1

cocklebur = experiment: Test B pre/postemergence cocklebur; format: in vivo, Xanthium strumarium; settings: for Cocklebur plant response rating: Postemergence; for Plant response rating, Cocklebur: Preemergence
Procedure, shortened: as §1

morningglory = experiment: Test B pre/postemergence morningglory; format: in vivo, Ipomoea hederacea; settings: for Morningglory plant response rating: Postemergence; for Plant response rating, Morningglory: Preemergence
Procedure, shortened: as §1

wheat = experiment: Test B pre/postemergence wheat; format: in vivo, Triticum aestivum
Procedure, shortened: as §1

[1] = Postemergence, Rate 62 g/ha, scale 0 to 10, 0 is no effect, 10 is complete control
[2] = Postemergence, Rate 250 g/ha, scale 0 to 10, 0 no effect, 10 complete control
[3] = Preemergence, Rate 62 g/ha, scale 0 to 10, 0 is no effect, 10 is complete control
[4] = Preemergence, Rate 125 g/ha, scale 0 to 10 (0 no effect, 10 complete control)
[5] = Preemergence, Rate 250 g/ha, scale of 0 to 10 where 0 is no effect and 10 is complete control
[6] = Preemergence, Rate 500 g/ha, scale 0 (no effect) to 10 (complete control)
[7] = Rate 125 g/ha, Postemergence, scale 0 to 10, 0 no effect, 10 complete control
[8] = Rate 500 g/ha, Postemergence, scale 0 to 10, 0 no effect, 10 complete control
[9] = Rate 62 g/ha, scale 0 to 10, 0 is no effect, 10 is complete control
[10] = Rate 250 g/ha, scale 0 to 10, 0 no effect, 10 complete control
[11] = Rate 125 g/ha, scale 0 to 10 (0 no effect, 10 complete control)
[12] = Rate 250 g/ha, scale of 0 to 10 where 0 is no effect and 10 is complete control
[13] = Rate 125 g/ha, scale 0 to 10, 0 no effect, 10 complete control
[14] = Rate 500 g/ha, scale 0 to 10, 0 no effect, 10 complete control

CCc1cccc(C)c1-n1c(=O)on(C(=O)N(c2ccc(F)cc2)C(C)C)c1=O [Compound 52]
6: Plant response rating, Crabgrass (crabgrass; [5]) | Crabgrass plant response rating (crabgrass; [8]) | Redroot pigweed plant response rating (pigweed; [6]) | B. signalgrass plant response rating (surinam grass; [6])
1: Crabgrass plant response rating (crabgrass; [1]) | Plant response rating, Crabgrass (crabgrass; [4]) | Crabgrass plant response rating (crabgrass; [7]) | Plant response rating, Redroot pigweed (pigweed; [5]) | Bedstraw plant response rating (bedstraw; [9]) | B. signalgrass plant response rating (surinam grass; Rate 500 g/ha, Postemergence, scale of 0 to 10 where 0 is no effect and 10 is complete control) | Wild oats plant response rating (wild oat; [2]) | Wild oats plant response rating (wild oat; [6]) | Wild oats plant response rating (wild oat; [8]) | Morningglory plant response rating (morningglory; [9]) | Morningglory plant response rating (morningglory; [10]) | Morningglory plant response rating (morningglory; [13]) | Morningglory plant response rating (morningglory; [14])
7: Plant response rating, Giant foxtail (giant foxtail; [5])
5: Plant response rating, Giant foxtail (giant foxtail; [4]) | Crabgrass plant response rating (crabgrass; [2]) | Bedstraw plant response rating (bedstraw; [13])
2: Soybean plant response rating (soybean; [1]) | Soybean plant response rating (soybean; [2]) | Soybean plant response rating (soybean; [7]) | Soybean plant response rating (soybean; [8])
10: Giant foxtail plant response rating (giant foxtail; [6]) | Crabgrass plant response rating (crabgrass; [6])
4: Giant foxtail plant response rating (giant foxtail; [8]) | Blackgrass plant response rating (blackgrass; [6]) | Corn plant response rating (corn; [14])
8: Bedstraw plant response rating (bedstraw; [10])
3: Giant foxtail plant response rating (giant foxtail; [2]) | Plant response rating, Giant foxtail (giant foxtail; [3]) | Giant foxtail plant response rating (giant foxtail; [7]) | Plant response rating, Blackgrass (blackgrass; [5]) | Corn plant response rating (corn; [10])
0: Giant foxtail plant response rating (giant foxtail; [1]) | Rape plant response rating (rape; [1]) | Rape plant response rating (rape; [2]) | Plant response rating, Rape (rape; [3]) | Plant response rating, Rape (rape; [4]) | Plant response rating, Rape (rape; [5]) | Rape plant response rating (rape; [6]) | Rape plant response rating (rape; [7]) | Rape plant response rating (rape; [8]) | Plant response rating, Crabgrass (crabgrass; [3]) | Velvetleaf plant response rating (velvetleaf; [1]) | Velvetleaf plant response rating (velvetleaf; [2]) | Plant response rating, Velvetleaf (velvetleaf; [3]) | Plant response rating, Velvetleaf (velvetleaf; [4]) | Plant response rating, Velvetleaf (velvetleaf; [5]) | Velvetleaf plant response rating (velvetleaf; [6]) | Velvetleaf plant response rating (velvetleaf; [7]) | Velvetleaf plant response rating (velvetleaf; [8]) | Plant response rating, Soybean (soybean; [3]) | Plant response rating, Soybean (soybean; [4]) | Plant response rating, Soybean (soybean; [5]) | Soybean plant response rating (soybean; [6]) | Redroot pigweed plant response rating (pigweed; [1]) | Redroot pigweed plant response rating (pigweed; [2]) | Plant response rating, Redroot pigweed (pigweed; [3]) | Plant response rating, Redroot pigweed (pigweed; [4]) | Redroot pigweed plant response rating (pigweed; [7]) | Redroot pigweed plant response rating (pigweed; [8]) | Plant response rating, Bedstraw (bedstraw; [9]) | Plant response rating, Bedstraw (bedstraw; [11]) | Plant response rating, Bedstraw (bedstraw; [12]) | Blackgrass plant response rating (blackgrass; [1]) | Blackgrass plant response rating (blackgrass; [2]) | Plant response rating, Blackgrass (blackgrass; [3]) | Plant response rating, Blackgrass (blackgrass; [4]) | Blackgrass plant response rating (blackgrass; [7]) | Blackgrass plant response rating (blackgrass; [8]) | Nutsedge plant response rating (purple nutsedge; [1]) | Nutsedge plant response rating (purple nutsedge; [2]) | Plant response rating, Nutsedge (purple nutsedge; [3]) | Plant response rating, Nutsedge (purple nutsedge; [4]) | Plant response rating, Nutsedge (purple nutsedge; [5]) | Nutsedge plant response rating (purple nutsedge; [6]) | Nutsedge plant response rating (purple nutsedge; [7]) | Nutsedge plant response rating (purple nutsedge; [8]) | B. signalgrass plant response rating (surinam grass; [1]) | B. signalgrass plant response rating (surinam grass; [2]) | Plant response rating, B. signalgrass (surinam grass; [3]) | Plant response rating, B. signalgrass (surinam grass; [4]) | Plant response rating, B. signalgrass (surinam grass; [5]) | B. signalgrass plant response rating (surinam grass; [7]) | Corn plant response rating (corn; [9]) | Plant response rating, Corn (corn; [9]) | Plant response rating, Corn (corn; [11]) | Plant response rating, Corn (corn; [12]) | Corn plant response rating (corn; [13]) | Wild oats plant response rating (wild oat; [1]) | Plant response rating, Wild oats (wild oat; [4]) | Plant response rating, Wild oats (wild oat; [5]) | Wild oats plant response rating (wild oat; [7]) | Cocklebur plant response rating (cocklebur; [9]) | Cocklebur plant response rating (cocklebur; [10]) | Plant response rating, Cocklebur (cocklebur; [9]) | Plant response rating, Cocklebur (cocklebur; [11]) | Plant response rating, Cocklebur (cocklebur; [12]) | Cocklebur plant response rating (cocklebur; [13]) | Cocklebur plant response rating (cocklebur; [14]) | Plant response rating, Morningglory (morningglory; [9]) | Plant response rating, Morningglory (morningglory; [11]) | Plant response rating, Morningglory (morningglory; [12]) | Wheat plant response rating (wheat; [1]) | Wheat plant response rating (wheat; [2]) | Plant response rating, Wheat (wheat; [3]) | Plant response rating, Wheat (wheat; [4]) | Plant response rating, Wheat (wheat; [5]) | Wheat plant response rating (wheat; [6]) | Wheat plant response rating (wheat; [7]) | Wheat plant response rating (wheat; [8])
